Target: T1, YGR257Cp (Mtm1p) (Saccharomyces cerevisiae, UniProt P53320)
T1 sequence (P53320 1-366): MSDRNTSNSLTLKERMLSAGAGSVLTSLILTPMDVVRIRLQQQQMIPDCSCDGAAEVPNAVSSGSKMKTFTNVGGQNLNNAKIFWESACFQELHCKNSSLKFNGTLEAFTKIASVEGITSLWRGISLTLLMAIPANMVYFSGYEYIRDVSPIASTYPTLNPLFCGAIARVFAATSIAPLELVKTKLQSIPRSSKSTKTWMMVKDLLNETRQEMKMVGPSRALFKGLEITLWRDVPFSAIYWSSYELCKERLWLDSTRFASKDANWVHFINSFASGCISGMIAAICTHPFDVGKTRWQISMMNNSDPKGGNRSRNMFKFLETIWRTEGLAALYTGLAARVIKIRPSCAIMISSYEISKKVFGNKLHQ
Test: intrinsic tryptophan fluorescence quenching titration
Assay type: binding

Kd: 700 ± 20 nM
SMILES: Cc1ncc(COP(=O)(O)O)c(C=O)c1O [pyridoxal 5′-phosphate]
